This passage reports EC50, IC50 and Imax results from ChEMBL document CHEMBL3091433, “Structure-based design of substituted hexafluoroisopropanol-arylsulfonamides as modulators of RORc” (Bioorg Med Chem Lett, 2013).

Test [1] concerns the target T1, Nuclear receptor ROR-gamma (Homo sapiens, UniProt P51449).
T1 sequence (P51449 whole entry): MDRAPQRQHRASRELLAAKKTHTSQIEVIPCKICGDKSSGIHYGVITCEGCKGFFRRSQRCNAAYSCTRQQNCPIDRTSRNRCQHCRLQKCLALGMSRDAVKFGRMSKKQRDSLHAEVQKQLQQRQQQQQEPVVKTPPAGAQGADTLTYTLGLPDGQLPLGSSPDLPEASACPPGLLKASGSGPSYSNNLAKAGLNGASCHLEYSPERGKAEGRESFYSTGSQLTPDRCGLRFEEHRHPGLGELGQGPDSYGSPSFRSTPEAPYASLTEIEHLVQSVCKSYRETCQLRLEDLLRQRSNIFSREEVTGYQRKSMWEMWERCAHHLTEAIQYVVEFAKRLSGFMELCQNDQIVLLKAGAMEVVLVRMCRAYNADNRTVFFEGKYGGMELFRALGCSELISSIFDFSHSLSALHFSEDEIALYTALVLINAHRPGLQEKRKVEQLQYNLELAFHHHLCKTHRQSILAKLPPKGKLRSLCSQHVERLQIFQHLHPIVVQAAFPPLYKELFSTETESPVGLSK
Description: Inverse agonist activity at N-terminal 6xHis-tagged human RORc ligand binding domain (241 to 486) expressed in bacterial expression system assessed as inhibition of SRC1 co-activator peptide recruitment after 3 hrs by TR-FRET analysis

In test [2] the target is T1, Nuclear receptor ROR-gamma. The source holds these as a separate data set.
Description: Displacement of [3H2]-25-hydroxycholesterol from N-terminal 6xHis-tagged human RORc ligand binding domain (241 to 486) expressed in bacterial expression system after 3 hrs by scintillation counting analysis
In test [3] the test system is PBMC. The experiment in a line: Cytotoxicity against human PBMC assessed as effect on cell physiology after 48 hrs by CellTiter-Glo assay. On the technique in general: In ATP-based viability assays light output follows the ATP content of the culture.
The subject of test [4] is PBMC. Put plainly: Inhibition of IFNgamma production in human PBMC after 48 hrs by Sandwich ELISA. Background: In an ELISA, binding on a coated surface is turned into a signal by an enzyme label.
Test [5] concerns PBMC. Put plainly: Antiinflammatory activity in human PBMC assessed as inhibition of IL-17 production after 48 hrs by Sandwich ELISA relative to control. It counts as functional.
The subject of test [6] is PBMC. Put plainly: cells. The conditions noted are these: Homo sapiens, 48 h.

Broadly, the EC50 is the concentration needed to bring the measured effect to its halfway point. For orientation: IC50 means the concentration that inhibits the measured activity by half. High values mean weaker potency, low ones greater potency. On to `O=S(=O)(c1ccccc1)N1CCc2cc(C(O)(C(F)(F)F)C(F)(F)F)ccc21`, for which a half-maximal response in test [1] (EC50) required 5 µM. The same molecule had an IC50 in test [2] of 0.883 µM.

In test [1], `N#Cc1ccccc1S(=O)(=O)N(CC(F)(F)F)c1ccc(C(O)(C(F)(F)F)C(F)(F)F)cc1` displayed an EC50 of 0.92 µM. This molecule also yielded an IC50 in test [2] of 0.52 µM.

In test [1], `N#Cc1cccc(S(=O)(=O)N(CC(F)(F)F)c2ccc(C(O)(C(F)(F)F)C(F)(F)F)cc2)c1` gave a half-maximal effective concentration (EC50) of 0.1 µM. The IC50 in test [2] stood at 0.19 µM.

The molecule `Cc1ccc(S(=O)(=O)N(CC(F)(F)F)c2ccc(C(O)(C(F)(F)F)C(F)(F)F)cc2)cc1` displayed an EC50 in test [1] of 0.02 µM. For the same molecule, in test [2], the IC50 stood at 0.051 µM.

For `O=S(=O)(c1cccnc1)N(CC(F)(F)F)c1ccc(C(O)(C(F)(F)F)C(F)(F)F)cc1`, in test [1], the EC50 worked out at 1 µM. In test [2], the IC50 was 0.748 µM.

Take `O=S(=O)(C1CC1)N(CC(F)(F)F)c1ccc(C(O)(C(F)(F)F)C(F)(F)F)cc1`: in test [2], the IC50 is 5 µM. In other words, the single-digit micromolar range.

For `O=S(=O)(Cc1ccccc1)N(CC(F)(F)F)c1ccc(C(O)(C(F)(F)F)C(F)(F)F)cc1`, the EC50 in test [1] was > 2 µM. In addition, in test [2], half-maximal inhibition (IC50) required 0.52 µM.

Consider `O=S(=O)(c1ccccc1)N(CCO)c1ccc(C(O)(C(F)(F)F)C(F)(F)F)cc1`, for which, in test [1], the EC50 came out at 1 µM. The molecule also had an IC50 in test [2] of 4 µM.

As for `COCCN(c1ccc(C(O)(C(F)(F)F)C(F)(F)F)cc1)S(=O)(=O)c1ccccc1`, the EC50 in test [1] was > 10 µM. This molecule also registered an IC50 in test [2] of 3 µM.

As for `CS(=O)(=O)CCN(c1ccc(C(O)(C(F)(F)F)C(F)(F)F)cc1)S(=O)(=O)c1ccccc1`, in test [1], the EC50 is > 10 µM. Moreover, in test [2], the IC50 was > 10 µM.

With `CC(=O)NCCN(c1ccc(C(O)(C(F)(F)F)C(F)(F)F)cc1)S(=O)(=O)c1ccccc1`, the EC50 in test [1] is > 10 µM. Besides, in test [2], the IC50 was > 10 µM.

For `O=C(O)CCN(c1ccc(C(O)(C(F)(F)F)C(F)(F)F)cc1)S(=O)(=O)c1ccccc1`, in test [1], the EC50 was > 10 µM. The IC50 in test [2] is > 10 µM.

Take `O=S(=O)(c1ccccc1)N(CCC(F)(F)F)c1ccc(C(O)(C(F)(F)F)C(F)(F)F)cc1`: the EC50 in test [1] was found to be 4 µM. This molecule also returned an IC50 in test [2] of 0.519 µM.

With `O=S(=O)(c1ccccc1)N(Cc1ccccc1)c1ccc(C(O)(C(F)(F)F)C(F)(F)F)cc1`, the EC50 in test [1] amounted to 8 µM. The midpoint of inhibition in test [2], the IC50, lay at 0.467 µM.

The molecule `COC(c1ccc(N(CC(F)(F)F)S(=O)(=O)c2ccccc2)cc1)(C(F)(F)F)C(F)(F)F` had an EC50 in test [1] of 9 µM. In test [2], this molecule registered an IC50 of 0.9 µM.

Turning to `O=C(O)c1ccc(N(CC(F)(F)F)S(=O)(=O)c2ccccc2)cc1`, the EC50 in test [1] was > 10 µM. Also, the IC50 in test [2] was > 10 µM.

Regarding `NC(=O)c1ccc(N(CC(F)(F)F)S(=O)(=O)c2ccccc2)cc1`, the EC50 in test [1] is > 10 µM. For the same molecule, the IC50 in test [2] is > 10 µM.

In the case of `NS(=O)(=O)c1ccc(N(CC(F)(F)F)S(=O)(=O)c2ccccc2)cc1`, the EC50 in test [1] is > 10 µM. For the same molecule, 9 µM corresponded to half-maximal inhibition in test [2] (IC50).

Regarding `CCN(c1cccc(C(O)(C(F)(F)F)C(F)(F)F)c1)S(=O)(=O)c1ccccc1`, the EC50 in test [1] was 0.9 µM. In test [2], this molecule registered an IC50 of 0.329 µM.

`O=C(c1ccccc1)N(CC(F)(F)F)c1ccc(C(O)(C(F)(F)F)C(F)(F)F)cc1`: in test [1], the EC50 worked out at 4 µM. Further, the 50% inhibitory concentration (IC50) in test [2] was 2 µM.

`O=C(Nc1ccc(C(O)(C(F)(F)F)C(F)(F)F)cc1)c1ccccc1`: the EC50 in test [1] was > 10 µM. Moreover, the IC50 in test [2] was > 10 µM.

On to `O=C(Nc1ccc(C(O)(C(F)(F)F)C(F)(F)F)cc1)c1ccc(C(F)(F)F)cc1`, for which the EC50 in test [1] is > 10 µM. In test [2], the IC50 is > 10 µM.

Molecule `CC(=O)Nc1nc(C)c(S(=O)(=O)Nc2ccc(C(O)(C(F)(F)F)C(F)(F)F)cc2)s1` displayed an EC50 in test [1] of 0.911 µM. The IC50 in test [2] turned out to be 2 µM.

Consider `O=S(=O)(Nc1ccc(C(O)(C(F)(F)F)C(F)(F)F)cc1)c1ccccc1`, for which the IC50 in test [2] was > 10 µM.

For the molecule `O=S(=O)(c1ccccc1)N(CC(F)(F)F)c1ccc(CO)cc1`, the EC50 in test [1] was > 10 µM. For the same molecule, the IC50 in test [2] is > 10 µM.

Turning to `O=S(=O)(c1ccccc1)N(CC(F)(F)F)c1ccc(C(O)(C(F)(F)F)C(F)(F)F)cc1` [T091317], the EC50 in the test with PBMC [3] is > 20 µM; with PBMC [4], > 20 µM; in the test on PBMC [6] it was 3 µM. Moreover, the Imax with PBMC [5] amounted to 81%.
